Test results: PubChem BioAssay AID228 (DTP/NCI, 2004)
Values joined by “and” are separate entries in the source; they are usually repeats but may differ in a detail not shown here. Equal values may be shown once. Inconclusive results are not listed.

Tested on: BDF1 mice, Friend leukemia sc, tumor weight T/C
Assay: NCI In Vivo Anticancer Drug Screen. Data for tumor model Friend Virus Leukemia (Solid) (subcutaneous) in B6D2F1 (BDF1) mice
Conditions: endpoint: mean tumor weight, higher = larger tumour
Method: The antitumor activity of compounds was measured in mice bearing transplantable tumors. Survival or tumor size were measured and the results are expressed as the measurement made in the treated group (T) divided by the measurement made in the vehicle treated control group (C). The tumor model used in this assay is Friend Virus Leukemia (Solid) (subcutaneous) in B6D2F1 (BDF1) mice

[1] = dose: 125.0 mg/kg/injection, schedule: Q01DX011 (ip), vehicle: carboxymethylcellulose (CMC)
[2] = dose: 22.5 mg/kg/injection, schedule: Q01DX011 (ip), vehicle: carboxymethylcellulose (CMC)
[3] = dose: 45.0 mg/kg/injection, schedule: Q01DX011 (ip), vehicle: carboxymethylcellulose (CMC)
[4] = dose: 90.0 mg/kg/injection, schedule: Q01DX011 (ip), vehicle: carboxymethylcellulose (CMC)
[5] = dose: 0.5 mg/kg/injection, schedule: Q01DX011 (ip), vehicle: carboxymethylcellulose (CMC)
[6] = dose: 1.0 mg/kg/injection, schedule: Q01DX011 (ip), vehicle: carboxymethylcellulose (CMC)
[7] = dose: 2.0 mg/kg/injection, schedule: Q01DX011 (ip), vehicle: carboxymethylcellulose (CMC)
[8] = dose: 1.25 mg/kg/injection, schedule: Q01DX011 (ip), vehicle: carboxymethylcellulose (CMC)
[9] = dose: 2.5 mg/kg/injection, schedule: Q01DX011 (ip), vehicle: carboxymethylcellulose (CMC)
[10] = dose: 10.0 mg/kg/injection, schedule: Q01DX011 (ip), vehicle: carboxymethylcellulose (CMC)
[11] = dose: 15.0 mg/kg/injection, schedule: Q01DX011 (ip), vehicle: carboxymethylcellulose (CMC)
[12] = dose: 250.0 mg/kg/injection, schedule: Q01DX011 (ip), vehicle: carboxymethylcellulose (CMC)

With `N#CCSc1nc(N)nc2nc[nH]c12` the T/C (dose: 31.25 mg/kg/injection, schedule: Q01DX011 (ip), vehicle: carboxymethylcellulose (CMC)) was 83 % of control, the T/C (dose: 62.5 mg/kg/injection, schedule: Q01DX011 (ip), vehicle: carboxymethylcellulose (CMC)) was 40 % of control and the T/C [1] was 31 % of control.
`O=c1c[n+](-c2ccccc2)[nH]o1` was tested, and the T/C [2] was 89 % of control, the T/C [3] was 76 % of control and the T/C [4] was 74 % of control. The T/C (dose: 180.0 mg/kg/injection, schedule: Q01DX011 (ip), vehicle: carboxymethylcellulose (CMC)) was 78 % of control.
`O=P(N1CC1)(N1CC1)N1CC1` was tested, and the T/C [5] was 86 % of control, the T/C [6] was 83 % of control and the T/C [7] was 84 % of control and 88 % of control. The T/C (dose: 4.0 mg/kg/injection, schedule: Q01DX011 (ip), vehicle: carboxymethylcellulose (CMC)) was 25 % of control and 37 % of control.
In the case of `O=C(Nc1ccc(C2=NCCN2)cc1)c1ccc(C(=O)Nc2ccc(C3=NCCN3)cc2)c(Cl)c1`, the T/C (dose: 0.31 mg/kg/injection, schedule: Q01DX011 (ip), vehicle: carboxymethylcellulose (CMC)) is reported as 66 % of control, the T/C [5] is reported as 93 % of control and the T/C (dose: 0.63 mg/kg/injection, schedule: Q01DX011 (ip), vehicle: carboxymethylcellulose (CMC)) is reported as 50 % of control. For the same compound, the T/C [8] was 40 % of control and 46 % of control, the T/C [9] was 39 % of control and the T/C [10] was 93 % of control. The T/C [11] was 21 % of control [middle of 4 runs] and the T/C (dose: 20.0 mg/kg/injection, schedule: Q01DX011 (ip), vehicle: carboxymethylcellulose (CMC)) was 6 % of control.
For `O=c1[nH]c(=O)n(C2CC(O)C(CO)O2)cc1Br` (stereo unspecified), the T/C [1] was 72 % of control and the T/C [12] was 52 % of control.
For `CCCCn1cnc2c(=S)nc(N)[nH]c21`, the T/C (dose: 0.25 mg/kg/injection, schedule: Q01DX011 (ip), vehicle: carboxymethylcellulose (CMC)) was 87 % of control, the T/C [5] was 53 % of control and the T/C [6] was 32 % of control and 40 % of control. For the same compound, the T/C (dose: 3.0 mg/kg/injection, schedule: Q01DX011 (ip), vehicle: carboxymethylcellulose (CMC)) was 6 % of control and 7 % of control, the T/C (dose: 7.0 mg/kg/injection, schedule: Q01DX011 (ip), vehicle: carboxymethylcellulose (CMC)) was 12 % of control and the T/C [11] was 9 % of control.
With `C1CN1c1nc(N2CC2)nc(N2CC2)n1` the T/C (dose: 0.05 mg/kg/injection, schedule: Q01DX011 (ip), vehicle: carboxymethylcellulose (CMC)) was 164 % of control and 233 % of control, the T/C (dose: 0.1 mg/kg/injection, schedule: Q01DX011 (ip), vehicle: carboxymethylcellulose (CMC)) was 161 % of control and 293 % of control and the T/C (dose: 0.12 mg/kg/injection, schedule: Q01DX011 (ip), vehicle: carboxymethylcellulose (CMC)) was 114 % of control. For the same compound, the T/C (dose: 0.15 mg/kg/injection, schedule: Q01DX011 (ip), vehicle: carboxymethylcellulose (CMC)) was 41 % of control, the T/C (dose: 0.2 mg/kg/injection, schedule: Q01DX011 (ip), vehicle: carboxymethylcellulose (CMC)) was 169 % of control and 256 % of control and the T/C (dose: 0.2 mg/kg/injection, schedule: Q01DX011 (ip), vehicle: saline) was 61 % of control and 76 % of control. For the same compound, the T/C (dose: 0.3 mg/kg/injection, schedule: Q01DX011 (ip), vehicle: carboxymethylcellulose (CMC)) was 26 % of control, the T/C (dose: 0.3 mg/kg/injection, schedule: Q01DX011 (ip), vehicle: saline) was 49 % of control and the T/C (dose: 0.4 mg/kg/injection, schedule: Q01DX011 (ip), vehicle: carboxymethylcellulose (CMC)) was 68 % of control and 85 % of control. The T/C (dose: 0.4 mg/kg/injection, schedule: Q01DX011 (ip), vehicle: saline) was 31 % of control and 35 % of control and the T/C (dose: 0.6 mg/kg/injection, schedule: Q01DX011 (ip), vehicle: carboxymethylcellulose (CMC)) was 24 % of control.
For `C=CCNc1ccc(C)cc1`, the T/C (dose: 22.0 mg/kg/injection, schedule: Q01DX011 (ip), vehicle: carboxymethylcellulose (CMC)) was 60 % of control, the T/C [3] was 58 % of control and the T/C [4] was 35 % of control.
In the case of `O=C(COc1cc(Cl)c(Cl)cc1Cl)OCCOc1cc(Cl)c(Cl)cc1Cl`, the T/C (dose: 11.25 mg/kg/injection, schedule: Q01DX011 (ip), vehicle: carboxymethylcellulose (CMC)) is reported as 91 % of control, the T/C [2] is reported as 112 % of control and the T/C [3] is reported as 117 % of control. For the same compound, the T/C [4] was 65 % of control.
For `CC(/C=N\N=C(N)N)=N/N=C(N)N`, the T/C (dose: 5.7 mg/kg/injection, schedule: Q01DX011 (ip), vehicle: carboxymethylcellulose (CMC)) was 111 % of control, the T/C (dose: 11.5 mg/kg/injection, schedule: Q01DX011 (ip), vehicle: carboxymethylcellulose (CMC)) was 70 % of control and the T/C (dose: 23.0 mg/kg/injection, schedule: Q01DX011 (ip), vehicle: carboxymethylcellulose (CMC)) was 96 % of control.
`O=C(Nc1ccc(C2=NCCN2)cc1)c1cccc(C(=O)Nc2ccc(C3=NCCN3)cc2)c1` was tested, and the T/C (dose: 25.0 mg/kg/injection, schedule: Q01DX011 (ip), vehicle: water) was 72 % of control.
For `c1ncc2[nH]cnc2n1`, the T/C (dose: 27.5 mg/kg/injection, schedule: Q01DX011 (ip), vehicle: carboxymethylcellulose (CMC)) was 104 % of control, the T/C (dose: 55.0 mg/kg/injection, schedule: Q01DX011 (ip), vehicle: carboxymethylcellulose (CMC)) was 87 % of control and the T/C (dose: 110.0 mg/kg/injection, schedule: Q01DX011 (ip), vehicle: carboxymethylcellulose (CMC)) was 81 % of control. The T/C (dose: 219.0 mg/kg/injection, schedule: Q01DX011 (ip), vehicle: carboxymethylcellulose (CMC)) was 43 % of control.
`O=C1C=Cc2ccc(O)cc2C1=O` was tested, and the T/C [8] was 108 % of control, the T/C [9] was 83 % of control and the T/C [10] was 102 % of control.
In the case of `ClCCn1cnc2c(SCc3ccccc3)ncnc21`, the T/C (dose: 18.0 mg/kg/injection, schedule: Q01DX011 (ip), vehicle: carboxymethylcellulose (CMC)) is reported as 85 % of control, the T/C (dose: 37.0 mg/kg/injection, schedule: Q01DX011 (ip), vehicle: carboxymethylcellulose (CMC)) is reported as 35 % of control and the T/C (dose: 75.0 mg/kg/injection, schedule: Q01DX011 (ip), vehicle: carboxymethylcellulose (CMC)) is reported as 32 % of control. For the same compound, the T/C (dose: 150.0 mg/kg/injection, schedule: Q01DX011 (ip), vehicle: carboxymethylcellulose (CMC)) was 11 % of control and 35 % of control and the T/C (dose: 300.0 mg/kg/injection, schedule: Q01DX011 (ip), vehicle: carboxymethylcellulose (CMC)) was 4 % of control.
For `NNc1ncnc2nc[nH]c12`, the T/C (dose: 25.0 mg/kg/injection, schedule: Q01DX011 (ip), vehicle: saline) was 118 % of control and the T/C (dose: 50.0 mg/kg/injection, schedule: Q01DX011 (ip), vehicle: saline) was 61 % of control.
For `C[C@]12CC[C@@H]3c4ccc(OC(=O)c5ccccc5)cc4CC[C@H]3[C@@H]1CC[C@@H]2O`, the T/C (dose: 77.25 mg/kg/injection, schedule: Q01DX011 (sc), vehicle: steriod suspending solution) was 102 % of control and the T/C (dose: 154.5 mg/kg/injection, schedule: Q01DX011 (sc), vehicle: steriod suspending solution) was 112 % of control.
For `CN(C)c1ccc(C(N)=O)cn1`, the T/C [6] was 78 % of control and the T/C [7] was 88 % of control and 100 % of control.
For `O=C(O)C(=O)c1ccc(-c2ccccc2)cc1`, the T/C (dose: 62.0 mg/kg/injection, schedule: Q01DX011 (ip), vehicle: carboxymethylcellulose (CMC)) was 67 % of control and the T/C [1] was 45 % of control.
`COc1cc([C@@H]2c3cc4c(cc3[C@H](O)[C@H]3COC(=O)[C@H]23)OCO4)cc(OC)c1OC` was tested, and the T/C (dose: 0.13 mg/kg/injection, schedule: Q01DX011 (ip), vehicle: carboxymethylcellulose (CMC)) was 86 % of control, the T/C (dose: 0.55 mg/kg/injection, schedule: Q01DX011 (ip), vehicle: carboxymethylcellulose (CMC)) was 86 % of control and the T/C (dose: 135.0 micrograms/kg/injection, schedule: Q01DX011 (ip), vehicle: carboxymethylcellulose (CMC)) was 83 % of control. The T/C (dose: 270.0 micrograms/kg/injection, schedule: Q01DX011 (ip), vehicle: carboxymethylcellulose (CMC)) was 114 % of control, the T/C (dose: 550.0 micrograms/kg/injection, schedule: Q01DX011 (ip), vehicle: carboxymethylcellulose (CMC)) was 75 % of control and the T/C (dose: 1100.0 micrograms/kg/injection, schedule: Q01DX011 (ip), vehicle: carboxymethylcellulose (CMC)) was 87 % of control.
`CNC(C)=O` was tested, and the T/C [12] was 104 % of control, the T/C (dose: 500.0 mg/kg/injection, schedule: Q01DX011 (ip), vehicle: carboxymethylcellulose (CMC)) was 99 % of control and 107 % of control and the T/C (dose: 1000.0 mg/kg/injection, schedule: Q01DX011 (ip), vehicle: carboxymethylcellulose (CMC)) was 75 % of control and 76 % of control.
In the case of `O=C(O)C1(NO)CCCC1`, the T/C (dose: 12.5 mg/kg/injection, schedule: Q01DX011 (ip), vehicle: carboxymethylcellulose (CMC)) is reported as 98 % of control, the T/C (dose: 25.0 mg/kg/injection, schedule: Q01DX011 (ip), vehicle: carboxymethylcellulose (CMC)) is reported as 78 % of control and the T/C (dose: 100.0 mg/kg/injection, schedule: Q01DX011 (ip), vehicle: carboxymethylcellulose (CMC)) is reported as 18 % of control and 34 % of control.
